Measurements: patent US7091189B2, “Medicament for treating lung cancer” (Dainippon Sumitomo Pharma Co., Ltd., priority 2002, dated 2006)
Counter-ions that a name gives are not always drawn. Like-named read-outs stand apart in the source and are kept apart here.

Experiments:
[1] = tested on: Human small cell lung cancer LX-1 cell strain; assay: Antitumor activity in nude mice with subcutaneously transplanted LX-1 (amrubicin hydrochloride and irinotecan); type: in vivo; details: single agent at maximum tolerated dose, intravenous (amrubicin hydrochloride 25 mg/kg; irinotecan 120 mg/kg), tumor volume measured for 23 days
[2] = tested on: human squamous cell lung carcinoma QC-56 cell strain; assay: Antitumor activity in nude mice with transplanted QC-56 (amrubicin hydrochloride and vinorelbine); type: in vivo; details: single agent at maximum tolerated dose (amrubicin hydrochloride 25 mg/kg; vinorelbine 16 mg/kg)
Protocol: (§1) Human small cell lung cancer LX-1 cell strain was subcutaneously transplanted to nude mice (59 animals) at 6 weeks of age. After 11 days from the tumor transplantation, 36 animals having a tumor volume of about 100 to 300 mm^3 were allotted to 6 groups consisting of 6 animals per group. […] Thereafter, tumor volume and body weight of the mice were measured for 23 days.
(§2) Minimum T/C %: the minimum value of ratio (%) of tumor growth rate^*) for respective administration groups to tumor growth rate^*) for the vehicle administration group within the period for measurement. ^*)Tumor growth rate: a ratio of an average value of tumor volume for a group of 6 animals at respective point in time of measurement to an average value of tumor volume for a group of 6 animals at respective point in time of drug administration.
(§3) Antitumor activity by a combination of amrubicin hydrochloride and vinorelbine was tested in the same way as Example 1, except that human squamous cell lung carcinoma QC-56 cell strain was used in place of human small cell lung cancer LX-1 cell strain and that the maximum tolerated dose of vinorelbine was set at 16 mg/kg. Vinorelbine was administered by giving 16, 12.8 or 8 ml/kg aliquot of Navelbine Injection (containing 10 mg/ml), purchased from Kyowa Hakko Kogyo Co., Ltd., as the maximum tolerated dose, the 0.8 times dose or the 0.5 times dose of vinorelbine. In addition, nude mice (100 animals) at 5 weeks of age were used.

[3] = tested on: human squamous cell lung carcinoma QC-56 cell strain; assay: Antitumor activity in nude mice with transplanted QC-56 (amrubicin hydrochloride and gemcitabine); type: in vivo; details: single agent at maximum tolerated dose (amrubicin hydrochloride 25 mg/kg; gemcitabine 300 mg/kg i.p. 2q7d)
Protocol: as §1, §2, §3
Antitumor activity by a combination of amrubicin hydrochloride and gemcitabine was tested in the same way as Example 2, except that the maximum tolerated dose of gemcitabine was set at 300 mg/kg/day and the administration was intraperitoneally once per week in two cycles. Gemcitabine was administered by giving […] aliquot of Gemzar Injection (containing 200 mg/bial), purchased from Eli Lilly Japan K.K., as the maximum tolerated dose, the 0.8 times dose or the 0.5 times dose of gemcitabine. In addition, nude mice (80 animals) at 5 weeks of age were used.

[4] = mice, cited from earlier work
[5] = humans, cited from earlier work
[6] = humans, cited from earlier work; remark: listed apart in the source
[7] = rabbit chronic experimental model, compared with doxorubicin; Invest. New Drug, 15, 219–225 (1997); cited from earlier work
tumor cells = details: compared with amrubicin; Cancer Chemothr. Pharmacol., 30, 51–57 (1992); cited from earlier work
[8] = listed as amrubicin hydrochloride

## CC(=O)[C@]1(N)Cc2c(O)c3c(c(O)c2[C@@H](OC2CC(O)C(O)CO2)C1)C(=O)c1ccccc1C3=O (stereo partly drawn) [Amrubicin hydrochloride]
[1]
  Minimum T/C(%) Average ± SD: 40.79 ± 5.92%
[1]; [8]
  Minimum T/C(%) Average ± SD: 40.79%
[2]
  Minimum T/C(%) Average ± SD: 37.73 ± 7.56%
[2]; [8]
  Minimum T/C(%) Average ± SD: 37.73%
[3]
  Minimum T/C(%) Average ± SD: 51.06 ± 16.56%
[3]; [8]
  Minimum T/C(%) Average ± SD: 51.06%
[4]; expressed per body surface
  maximum tolerated dose: 75 mg/m^2
[4]
  maximum tolerated dose: 25 mg/kg
[5]; administration in 3 continuous days
  maximum tolerated dose: 50 mg/m^2 per day
[5]; once a day single dose
  maximum tolerated dose: 130 mg/m^2

## Nc1ccn([C@@H]2O[C@H](CO)[C@@H](O)C2(F)F)c(=O)n1 [Gemcitabine]
[3]
  Minimum T/C(%) Average ± SD: 69.47 ± 26.06%
[3]; listed as gemcitabine
  Minimum T/C(%) Average ± SD: 69.47%
[6]
  maximum administered dose: 1000 mg/m^2
[4]
  maximum tolerated dose: 300 mg/kg/dose

## CCc1c2c(nc3ccc(OC(=O)N4CCC(N5CCCCC5)CC4)cc13)-c1cc3c(c(=O)n1C2)COC(=O)[C@]3(O)CC [Irinotecan]
[6]; at intervals of 3 weeks
  maximum administered dose: 350 mg/m^2
[6]; at intervals of a week
  maximum administered dose: 150 mg/m^2

## CCC1=C[C@@H]2CN(C1)Cc1c([nH]c3ccccc13)[C@@](C(=O)OC)(c1cc3c(cc1OC)N(C)[C@H]1[C@@](O)(C(=O)OC)[C@H](OC(C)=O)[C@]4(CC)C=CCN5CC[C@]31[C@@H]54)C2 [Vinorelbine]
[2]
  Minimum T/C(%) Average ± SD: 38.24 ± 12.87%
[2]; listed as vinorelbine
  Minimum T/C(%) Average ± SD: 38.24%
[6]
  maximum administered dose: 25 mg/m^2
[4]
  maximum tolerated dose: 16 mg/kg

## COc1cc2ncnc(Nc3ccc(F)c(Cl)c3)c2cc1OCCCN1CCOCC1 [ZD 1839, 4-(3-chloro-4-fluoroanilino)-7-methoxy-6-(3-morpholinopropoxy)quinazoline]
[4]
  maximum tolerated dose: 200 mg/kg
[5]
  maximum tolerated dose: 700 mg/day

## CC(=O)[C@]1(N)Cc2c(O)c3c(c(O)c2[C@@H](O[C@H]2C[C@H](O)[C@H](O)CO2)C1)C(=O)c1ccccc1C3=O [amrubicin, (+)-(7S,9S)-9-acetyl-9-amino-7-[(2-deoxy-β-D-erythro-pentopyranosyl)oxy]-7,8,9,10-tetrahydro-6,11-dihydroxy-5,12-naphthacenedione]
[7]
  cardiac toxicity: far weaker than doxorubicin

## CC(O)[C@]1(N)Cc2c(O)c3c(c(O)c2[C@@H](O[C@H]2C[C@H](O)[C@H](O)CO2)C1)C(=O)c1ccccc1C3=O (stereo partly drawn) [amrubicinol]
Tumor cells
  inhibitory activity against growth of tumor cells: considerably stronger inhibitory activity against growth of tumor cells than that of amrubicin

## CC(=O)O[C@@]12CO[C@@H]1C[C@H](O)[C@@]1(C)C(=O)[C@H](O)C3=C(C)[C@@H](OC(=O)[C@H](O)[C@@H](NC(=O)OC(C)(C)C)c4ccccc4)C[C@@](O)([C@@H](OC(=O)c4ccccc4)[C@H]21)C3(C)C [docetaxel]
[6]
  maximum administered dose: 70 mg/m^2
[4]
  maximum tolerated dose: 30 mg/kg/dose

## CC(=O)O[C@H]1C(=O)[C@@]2(C)[C@H]([C@H](OC(=O)c3ccccc3)[C@]3(O)C[C@H](OC(=O)[C@H](O)[C@@H](NC(=O)c4ccccc4)c4ccccc4)C(C)=C1C3(C)C)[C@]1(OC(C)=O)CO[C@@H]1C[C@@H]2O [paclitaxel]
[4]
  maximum tolerated dose: 12.5 mg/kg/dose
